These results are taken from ChEMBL document CHEMBL4184097, “Design, synthesis, and evaluation of novel inhibitors for wild-type human serine racemase” (Bioorg Med Chem Lett, 2018).

The term IC50 denotes the midpoint of a concentration-inhibition curve.

In assay [1] the target is T1, Serine racemase (Homo sapiens) (UniProt Q9GZT4).
T1 sequence (whole entry): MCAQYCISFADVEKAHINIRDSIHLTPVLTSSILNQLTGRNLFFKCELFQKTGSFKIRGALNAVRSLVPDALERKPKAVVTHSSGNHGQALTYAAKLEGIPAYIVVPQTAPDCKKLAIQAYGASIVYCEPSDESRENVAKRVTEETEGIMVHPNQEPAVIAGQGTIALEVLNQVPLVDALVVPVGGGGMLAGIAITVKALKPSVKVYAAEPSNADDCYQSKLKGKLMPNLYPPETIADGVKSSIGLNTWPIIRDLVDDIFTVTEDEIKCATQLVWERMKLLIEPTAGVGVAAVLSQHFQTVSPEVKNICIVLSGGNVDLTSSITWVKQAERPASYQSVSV
Briefly: Inhibition of wild-type serine racemase (unknown origin) assessed as residual activity by measuring D-serine level at 1 mM using […] as substrate and PLP as co-factor pretreated for 30 mins followed by substrate and co-factor addition measured after 30 mins relative to control.

The next assay concerns the target T2, Serine racemase (Homo sapiens, UniProt Q9GZT4).
T2 sequence (Q9GZT4 whole entry): T1 sequence (whole entry)
Briefly: Inhibition of wild-type serine racemase (unknown origin) assessed as residual activity by measuring D-serine level using […] as substrate and PLP as co-factor pretreated for 30 mins followed by substrate and co-factor addition measured after 30 mins.

Turning to `COc1ccccc1SCCC(=O)NCC(=O)Nc1ccc(NC(C)=O)cc1`, in assay [1], the Activity turned out to be 100%. Still for that read-out and setting: next, `CC(=O)Nc1ccc(NC(=O)COC(=O)CCSc2ccccc2Cl)cc1`: 84%; `CC(=O)Nc1ccc(NC(=O)COC(=O)CCSc2cccc(Cl)c2)cc1`: 100%.

Consider `CC(=O)Nc1ccc(NC(=O)C(C)OC(=O)CCSc2ccccc2Cl)cc1` (centres undefined), for which the Activity in assay [1] stood at 49%. As for `COc1ccccc1SCCC(=O)NC(C)C(=O)Nc1ccc(NC(C)=O)cc1` (centres undefined), in assay [1], the Activity was determined as 92%. Take `COc1ccccc1CCCC(=O)OCC(=O)Nc1ccc(NC(C)=O)cc1`: in assay [1], the Activity turned out to be 76%. Take `COc1ccccc1CCCC(=O)CCC(=O)Nc1ccc(NC(C)=O)cc1`: in assay [1], the Activity was determined as 100%. Same read-out and setting: the value for `CC(=O)Nc1ccc(NC(=O)COC(=O)CCSc2ccccc2F)cc1` was 55%. Same read-out and setting: next, `CC(=O)c1ccc(NC(=O)NNC(=O)Cc2ccc(Cl)c(Cl)c2)cc1`: 56%; `CC(=O)Nc1ccc(NC(=O)C(C)NC(=O)CCSc2ccccc2Cl)cc1` (centres undefined): 52%. In the case of `COc1ccccc1SCCC(=O)OCC(=O)Nc1ccc(NC(C)=O)cc1`, the Activity in assay [1] came to 36%. In addition, the IC50 at Serine racemase worked out at 836 µM. For `COc1ccc(SCCC(=O)OCC(=O)Nc2ccc(NC(C)=O)cc2)cc1`, the Activity in assay [1] turned out to be 65%. On the same count and under the same terms, next, `CC(=O)Nc1ccc(NC(=O)CNC(=O)CCSc2ccccc2Cl)cc1`: 100%; `CC(=O)Nc1ccc(NC(=O)COC(=O)CCOc2ccccc2F)cc1`: 88%; `CC(=O)Nc1ccc(NC(=O)COC(=O)CCSc2ccccc2)cc1`: 72%.

As to `CCc1ccccc1NC(=O)C(C)OC(=O)CCSc1ccccc1Cl` (centres undefined), the Activity in assay [1] was 91%. On the same count and under the same terms, the value for `COc1cccc(SCCC(=O)OCC(=O)Nc2ccc(NC(C)=O)cc2)c1` was 61%. Still for that read-out and setting: the value for `CC(OC(=O)CCSc1ccccc1Cl)C(=O)Nc1ccccc1` (centres undefined) was 91%.
